Experiments:
[1] = target: T1, recombinant human ALK5 (TGF-βR1) protein (Homo sapiens, UniProt P36897); assay: Biochemical ALK5 (TGF-βR1) assay to measure pKi (LANCE Ultra ULight kinase assay); conditions: apparent pKi, converted from pIC50 using the Cheng-Prusoff equation
T1 construct: purchased Life Technologies PR9075A
T1 sequence (P36897 34-503): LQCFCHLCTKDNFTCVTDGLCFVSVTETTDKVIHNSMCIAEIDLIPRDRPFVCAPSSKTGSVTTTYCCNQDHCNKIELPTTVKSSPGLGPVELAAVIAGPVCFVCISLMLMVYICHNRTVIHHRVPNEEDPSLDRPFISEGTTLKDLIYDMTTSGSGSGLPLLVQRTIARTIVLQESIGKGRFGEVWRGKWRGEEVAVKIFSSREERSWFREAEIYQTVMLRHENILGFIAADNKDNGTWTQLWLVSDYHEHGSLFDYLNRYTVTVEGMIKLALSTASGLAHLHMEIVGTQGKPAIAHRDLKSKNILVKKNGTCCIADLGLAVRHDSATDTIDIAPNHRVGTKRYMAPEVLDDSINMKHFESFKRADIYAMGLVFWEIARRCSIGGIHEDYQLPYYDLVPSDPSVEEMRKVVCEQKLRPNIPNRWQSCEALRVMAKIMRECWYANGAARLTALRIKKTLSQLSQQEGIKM
Outline: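 TR-FRET kinase format: compound dose range 10 μM–25 pM equilibrated 60 min with human ALK5 and ULight-labelled topoisomerase 2α peptide in HEPES/MgCl2 buffer pH 7.5 with DTT. Reaction started with ATP (125 μM stock, 5× final), 60 min at 37° C, stopped with EDTA/Eu-anti-phospho antibody; pKi derived from pIC50 via Cheng-Prusoff.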

[2] = tested on: TGF-β-stimulated SMAD3 phosphorylation in BEAS-2B cells; assay: Cellular ALK5 potency assay, inhibition of TGF-β stimulated pSMAD3 formation in BEAS-2B cells; assay type: cell-based; conditions: Homo sapiens, inhibition of TGF-β (10 ng/mL) stimulated pSMAD3 formation, 1 hour compound incubation, read-out: BEAS2B pIC50 (converted)
Outline: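 Phospho-SMAD3 was quantified by AlphaLISA in lysates of human lung epithelial BEAS-2B cells. Compound was added 1 h (37 °C, HEPES/BSA-supplemented HBSS) before a 30 min challenge with 10 ng/mL TGF-β. Values are pIC50 relative to stimulated cells without compound.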

| Compound | Ki [1] [nM] | IC50 [2] [nM] |
| --- | --- | --- |
| Fc1ccc(Cl)cc1-c1[nH]nnc1-c1ccc2ncc(N3CCNCC3)cc2c1 [Compound 18-5, 6-[5-(5-chloro-2-fluoro-phenyl)-1H-triazol-4-yl]-3-piperazin-1-yl-quinoline] | 0.398 to 3.16 | 25.1 to 158 |
| CNCCn1cc(-c2cnc3ccc(-c4nc[nH]c4-c4ccc(F)c(F)c4)nc3c2)cn1 [Compound 9-3, 2-(4-(6-(5-(3,4-difluorophenyl)-1H-imidazol-4-yl)-1,5-naphthyridin-3-yl)-1H-pyrazol-1-yl)-N-methylethan-1-amine] | ≤ 0.0316 | ≤ 20 |
| Fc1ccccc1-c1[nH]nnc1-c1ccc2ncc(-c3c[nH]nc3C(F)(F)F)cc2n1 [Compound 12-2, 2-[5-(2-fluorophenyl)-1H-triazol-4-yl]-7-[3-(trifluoromethyl)-1H-pyrazol-4-yl]-1,5-naphthyridine] | 3.98 to 31.6 | 25.1 to 158 |
| Fc1cc(F)c(-c2n[nH]cc2-c2ccc3ncc(-c4ncc5n4CCNC5)cc3n2)cc1Cl [Compound 6-51, 2-[3-(5-chloro-2,4-difluoro-phenyl)-1H-pyrazol-4-yl]-7-(5,6,7,8-tetrahydroimidazo[1,5-a]pyrazin-3-yl)-1,5-naphthyridine] | 0.398 to 3.16 | 25.1 to 158 |
| Fc1ccc(Cl)cc1-c1n[nH]cc1-c1ccc2ncc(NCCN3CCNCC3)cc2n1 [Compound 1-21, 6-[3-(5-chloro-2-fluoro-phenyl)-1H-pyrazol-4-yl]-N-(2-piperazin-1-ylethyl)-1,5-naphthyridin-3-amine] | 0.0398 to 0.316 | 25.1 to 158 |
| NC1CCN(c2cnc3ccc(-c4c[nH]nc4-c4ccccc4F)nc3c2)C1 (stereo not drawn) [Compound 11-2, 1-(6-(3-(2-fluorophenyl)-1H-pyrazol-4-yl)-1,5-naphthyridin-3-yl)pyrrolidin-3-amine] | 0.398 to 3.16 | 25.1 to 158 |
| Fc1cc(F)c(-c2n[nH]cc2-c2ccc3ncc(-c4nnc5n4CCN5)cc3n2)cc1Cl [Compound 6-64, 2-[3-(5-chloro-2,4-difluoro-phenyl)-1H-pyrazol-4-yl]-7-(6,7-dihydro-5H-imidazo[2,1-c][1,2,4]triazol-3-yl)-1,5-naphthyridine] | 0.398 to 3.16 | 200 to 1260 |
| COCc1cccc(-c2n[nH]cc2-c2ccc3ncc(NCCN4CCN(C(C)C)CC4)cc3n2)c1 [Compound 14-17, N-[2-(4-isopropylpiperazin-1-yl)ethyl]-6-[3-[3-(methoxymethyl)phenyl]-1H-pyrazol-4-yl]-1,5-naphthyridin-3-amine] | 3.98 to 31.6 | 200 to 1260 |
| CN1CC=C(c2cnc3ccc(-c4c[nH]nc4-c4cc(Cl)c(F)cc4F)nc3c2)C1 [Compound 6-43, 2-(3-(5-chloro-2,4-difluorophenyl)-1H-pyrazol-4-yl)-7-(1-methyl-2,5-dihydro-1H-pyrrol-3-yl)-1,5-naphthyridine] | 0.0398 to 0.316 | ≤ 20 |
| Fc1cc(F)c(-c2n[nH]cc2-c2ccc3ncc(-c4cnc5n4CCN5)cc3n2)cc1Cl [Compound 6-54, 2-[3-(5-chloro-2,4-difluoro-phenyl)-1H-pyrazol-4-yl]-7-(6,7-dihydro-5H-imidazo[1,2-a]imidazol-3-yl)-1,5-naphthyridine] | 0.0398 to 0.316 | 25.1 to 158 |
| Fc1ccc(Cl)cc1-c1n[nH]cc1-c1ccc2ncc(NCC3CCNCC3)cc2n1 [Compound 1-27, 6-[3-(5-chloro-2-fluoro-phenyl)-1H-pyrazol-4-yl]-N-(4-piperidylmethyl)-1,5-naphthyridin-3-amine] | ≤ 0.0316 | 25.1 to 158 |
| Fc1ccc(Cl)cc1-c1[nH]cnc1-c1ccc2ncc(-c3cnn4c3CNCC4)cc2n1 [Compound 2-22, 2-[5-(5-chloro-2-fluoro-phenyl)-1H-imidazol-4-yl]-7-(4,5,6,7-tetrahydropyrazolo[1,5-a]pyrazin-3-yl)-1,5-naphthyridine] | 0.0398 to 0.316 | 25.1 to 158 |
| CCOC(=O)[C@H]1CN(c2cnc3ccc(-c4nc[nH]c4-c4cc(Cl)ccc4F)nc3c2)CCN1 [Compound 2-38, ethyl (2R)-4-[6-[5-(5-chloro-2-fluoro-phenyl)-1H-imidazol-4-yl]-1,5-naphthyridin-3-yl]piperazine-2-carboxylate] | 3.98 to 31.6 | 25.1 to 158 |
| CNC(=O)[C@H]1CN(c2cnc3ccc(-c4c[nH]nc4-c4cc(Cl)c(F)cc4F)nc3c2)CCN1C(C)C [Compound 6-38, (2R)-4-[6-[3-(5-chloro-2,4-difluoro-phenyl)-1H-pyrazol-4-yl]-1,5-naphthyridin-3-yl]-1-isopropyl-N-methyl-piperazine-2-carboxamide] | 0.0398 to 0.316 | 25.1 to 158 |
| Fc1cc(F)c(-c2n[nH]cc2-c2ccc3ncc(-c4cn(Cc5c[nH]cn5)nn4)cc3n2)cc1Cl [Compound 6-62, 7-(1-((1H-imidazol-4-yl)methyl)-1H-1,2,3-triazol-4-yl)-2-(3-(5-chloro-2,4-difluorophenyl)-1H-pyrazol-4-yl)-1,5-naphthyridine] | 0.0398 to 0.316 | 25.1 to 158 |
| Fc1ccc(Cl)cc1-c1n[nH]cc1-c1ccc2ncc(NCC3CCN3)cc2n1 (stereo not drawn) [Compound 1-17, N-(azetidin-2-ylmethyl)-6-[3-(5-chloro-2-fluoro-phenyl)-1H-pyrazol-4-yl]-1,5-naphthyridin-3-amine] | 0.0398 to 0.316 | 25.1 to 158 |
| CC1(C)CCCN1CCNc1cnc2ccc(-c3c[nH]nc3-c3cc(Cl)ccc3F)nc2c1 [Compound 1-13, 6-[3-(5-chloro-2-fluoro-phenyl)-1H-pyrazol-4-yl]-N-[2-(2,2-dimethylpyrrolidin-1-yl)ethyl]-1,5-naphthyridin-3-amine] | 0.0398 to 0.316 | ≤ 20 |
| CNCCn1ccc(-c2cnc3ccc(-c4c[nH]nc4-c4cccc(COC)c4)nc3c2)n1 [Compound 14-10, 2-[3-[6-[3-[3-(methoxymethyl)phenyl]-1H-pyrazol-4-yl]-1,5-naphthyridin-3-yl]pyrazol-1-yl]-N-methyl-ethanamine] | 0.398 to 3.16 | 25.1 to 158 |
| Fc1ccc(Cl)cc1-c1n[nH]cc1-c1ccc2ncc(N3CCn4nc(Br)nc4C3)cc2n1 [Compound 1-48, 7-(2-bromo-6,8-dihydro-5H-[1,2,4]triazolo[1,5-a]pyrazin-7-yl)-2-[3-(5-chloro-2-fluoro-phenyl)-1H-pyrazol-4-yl]-1,5-naphthyridine] | 0.398 to 3.16 | ≤ 20 |
| Fc1ccc(Cl)cc1-c1n[nH]cc1-c1ccc2ncc(-c3cnn(CCNCc4ccccc4)c3)cc2n1 [Compound 1-95, N-benzyl-2-[4-[6-[3-(5-chloro-2-fluoro-phenyl)-1H-pyrazol-4-yl]-1,5-naphthyridin-3-yl]pyrazol-1-yl]ethanamine] | 0.0398 to 0.316 | 25.1 to 158 |
| Fc1ccc(Cl)cc1-c1n[nH]cc1-c1ccc2ncc(N3CCC(N4CCCCC4)C3)cc2n1 (racemic) [Compound 1-39, 2-[3-(5-chloro-2-fluoro-phenyl)-1H-pyrazol-4-yl]-7-[rac-(3R)-3-(1-piperidyl)pyrrolidin-1-yl]-1,5-naphthyridine] | 0.0398 to 0.316 | ≤ 20 |
| NC(=O)C1(N2CCN(c3cnc4ccc(-c5c[nH]nc5-c5cc(Cl)ccc5F)nc4c3)CC2)CCCC1 [Compound 1-32, 1-[4-[6-[3-(5-chloro-2-fluoro-phenyl)-1H-pyrazol-4-yl]-1,5-naphthyridin-3-yl]piperazin-1-yl]cyclopentanecarboxamide] | 0.0398 to 0.316 | 25.1 to 158 |
| Fc1ccc(Cl)cc1-c1nc2ccccn2c1-c1ccc2ncc(-c3cnn4c3CNCC4)cc2n1 [Compound 3-7, 2-[2-(5-chloro-2-fluoro-phenyl)imidazo[1,2-a]pyridin-3-yl]-7-(4,5,6,7-tetrahydropyrazolo[1,5-a]pyrazin-3-yl)-1,5-naphthyridine] | 0.0398 to 0.316 | 25.1 to 158 |
| CN(C)C1CCN(c2cnc3ccc(-c4c[nH]nc4-c4cc(Cl)ccc4F)nc3c2)C1 (racemic) [Compound 1-34, rac-(3S)-1-[6-[3-(5-chloro-2-fluoro-phenyl)-1H-pyrazol-4-yl]-1,5-naphthyridin-3-yl]-N,N-dimethyl-pyrrolidin-3-amine] | ≤ 0.0316 | 25.1 to 158 |
| COCc1cccc(-c2n[nH]cc2-c2ccc3ncc(N4CCC(N(C)C)CC4)cc3n2)c1 [Compound 14-7, 1-[6-[3-[3-(methoxymethyl)phenyl]-1H-pyrazol-4-yl]-1,5-naphthyridin-3-yl]-N,N-dimethyl-piperidin-4-amine] | 3.98 to 31.6 | 25.1 to 158 |
| Fc1cc(F)c(-c2n[nH]cc2-c2ccc3ncc(-c4[nH]nc5c4CCN5)cc3n2)cc1Cl [Compound 6-59, 2-[3-(5-chloro-2,4-difluoro-phenyl)-1H-pyrazol-4-yl]-7-(2,4,5,6-tetrahydropyrrolo[2,3-c]pyrazol-3-yl)-1,5-naphthyridine] | 0.0398 to 0.316 | 25.1 to 158 |
| Fc1ccc(Cl)cc1-c1[nH]cnc1-c1ccc2ncc(-c3cc4n(n3)CCNC4)cc2n1 [Compound 2-21, 2-(5-(5-chloro-2-fluorophenyl)-1H-imidazol-4-yl)-7-(4,5,6,7-tetrahydropyrazolo[1,5-a]pyrazin-2-yl)-1,5-naphthyridine] | 0.0398 to 0.316 | 25.1 to 158 |

From patent publication US11730720B2, “ALK5 inhibitors” (THERAVANCE BIOPHARMA R&D IP, LLC, priority 2018, dated 2023)
